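Interpolation was linear, between the two tested concentrations surrounding the appropriate level; five concentrations were tested over 48 hours in 96-well plates. GI50 marks 50% less growth.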 The source made the active and inactive calls. No stated cut-off is given here; in the data, active = GI50 up to about 1.1 µM and inactive = higher.
Columns and labels:
Assay in all cases: inhibition of tumour cell growth, NCI panel, 48 h
786-0 = test system: 786-0
A498 = test system: A498
A549 = test system: A549
ACHN = test system: ACHN
CAKI-1 = test system: CAKI-1
CCRF-CEM = test system: CCRF-CEM
COLO 205 = test system: COLO 205
DU-145 = test system: DU-145
HCC 2998 = test system: HCC 2998
HCT-116 = test system: HCT-116
HCT-15 = test system: HCT-15
Hs-578T = test system: Hs-578T
IGROV-1 = test system: IGROV-1
KM12 = test system: KM12
LOX IMVI = test system: LOX IMVI
M14 = test system: M14
MCF7 = test system: MCF7
MDA-MB-231 = test system: MDA-MB-231
MDA-N = test system: MDA-N
MOLT-4 = test system: MOLT-4
NCI-H23 = test system: NCI-H23
NCI-H460 = test system: NCI-H460
NCI/ADR-RES = test system: NCI/ADR-RES
OVCAR-3 = test system: OVCAR-3
OVCAR-5 = test system: OVCAR-5
PC-3 = test system: PC-3
RXF 393 = test system: RXF 393
SF-268 = test system: SF-268
SF-295 = test system: SF-295
SF-539 = test system: SF-539
SK-MEL-2 = test system: SK-MEL-2
SK-OV-3 = test system: SK-OV-3
SN12C = test system: SN12C
SNB-19 = test system: SNB-19
SNB-75 = test system: SNB-75
T47D = test system: T47D
TK-10 = test system: TK-10
U-251 = test system: U-251
UACC-257 = test system: UACC-257
UO-31 = test system: UO-31

**Q.** Which GI50 (786-0) does the source give for `CC(=O)OCC1OC(N2C(c3ccccc3)=CC(c3cccs3)C(C#N)=C2S)C(OC(C)=O)C(OC(C)=O)C1OC(C)=O` (stereo not given) here?
**A.** 2.55 µM (inactive)

**Q.** What about the GI50 (A498) of the same molecule?
**A.** 10.5 µM (inactive)

**Q.** And the GI50 (A549)?
**A.** > 100 µM (inactive)

**Q.** What about the GI50 (ACHN) of the same molecule?
**A.** > 100 µM (inactive)

**Q.** And the GI50 (CAKI-1)?
**A.** > 100 µM (inactive)

**Q.** What about the GI50 (CCRF-CEM) of the same molecule?
**A.** > 100 µM (inactive)

**Q.** And the GI50 (COLO 205)?
**A.** > 100 µM (inactive)

**Q.** And the GI50 (DU-145)?
**A.** > 100 µM (inactive)

**Q.** What about the GI50 (HCC 2998) of the same molecule?
**A.** > 100 µM (inactive)

**Q.** And the GI50 (HCT-116)?
**A.** 2.25 µM (inactive)

**Q.** And the GI50 (HCT-15)?
**A.** > 100 µM

**Q.** What about the GI50 (Hs-578T) of the same molecule?
**A.** 2.47 µM (inactive)

**Q.** And the GI50 (IGROV-1)?
**A.** > 100 µM (inactive)

**Q.** And the GI50 (KM12)?
**A.** > 100 µM (inactive)

**Q.** And the GI50 (LOX IMVI)?
**A.** > 100 µM (inactive)

**Q.** What about the GI50 (M14) of the same molecule?
**A.** 1.84 µM (inactive)

**Q.** What about the GI50 (MCF7) of the same molecule?
**A.** > 100 µM (inactive)

**Q.** What about the GI50 (MDA-MB-231) of the same molecule?
**A.** 6.03 µM (inactive)

**Q.** What about the GI50 (MDA-N) of the same molecule?
**A.** > 100 µM (inactive)

**Q.** And the GI50 (MOLT-4)?
**A.** > 100 µM (inactive)

**Q.** And the GI50 (NCI-H23)?
**A.** 5.18 µM (inactive)

**Q.** And the GI50 (NCI-H460)?
**A.** > 100 µM (inactive)

**Q.** And the GI50 (NCI/ADR-RES)?
**A.** > 100 µM (inactive)

**Q.** What about the GI50 (OVCAR-3) of the same molecule?
**A.** > 100 µM (inactive)

**Q.** And the GI50 (OVCAR-5)?
**A.** 4.92 µM (inactive)

**Q.** And the GI50 (PC-3)?
**A.** > 100 µM (inactive)

**Q.** What about the GI50 (RXF 393) of the same molecule?
**A.** 3.43 µM (inactive)

**Q.** What about the GI50 (SF-268) of the same molecule?
**A.** 4.49 µM (inactive)

**Q.** What about the GI50 (SF-295) of the same molecule?
**A.** > 100 µM (inactive)

**Q.** And the GI50 (SF-539)?
**A.** 2.34 µM (inactive)

**Q.** What about the GI50 (SK-MEL-2) of the same molecule?
**A.** > 100 µM (inactive)

**Q.** What about the GI50 (SK-OV-3) of the same molecule?
**A.** > 100 µM (inactive)

**Q.** And the GI50 (SN12C)?
**A.** > 100 µM (inactive)

**Q.** And the GI50 (SNB-19)?
**A.** 47.3 µM (inactive)

**Q.** What about the GI50 (SNB-75) of the same molecule?
**A.** 4.43 µM (inactive)

**Q.** What about the GI50 (T47D) of the same molecule?
**A.** > 100 µM (inactive)

**Q.** And the GI50 (TK-10)?
**A.** > 100 µM (inactive)

**Q.** What about the GI50 (U-251) of the same molecule?
**A.** 10.3 µM (inactive)

**Q.** What about the GI50 (UACC-257) of the same molecule?
**A.** > 100 µM (inactive)

**Q.** And the GI50 (UO-31)?
**A.** > 100 µM (inactive)
